Measured values reported in US20160223522A1, “ASSAY FOR DETERMINING RELATIVE REDOX CHANGES IN LIVING CELLS AND ASSOCIATED DEVICES, SYSTEMS, AND METHODS” (University of Utah Research Foundation, priority 2013, published 2016).
Read-outs that look alike come from different tables or passages of the source. Ends that are not written are not given here.

Key:
BJ fibroblasts [1] = test: Reductide plate reader assay in cells (FAM signal after treatment with redox-modifying agents); type: cell-based, human; conditions: for reductide FAM signal, % of control at 50 µM: Homo sapiens, Fibroblast, 50 μM compound for 24 hours, then reductide 1.5 μM for four hours, in comparison with vehicle treated cells, read-out: % change from control (reductide FAM signal)
Experimental: BJ fibroblasts were trypsinized and re-plated in a 96-well plate (5,000 cells/well) in normal growth medium and allowed to attach overnight. Media was replaced with normal media supplemented with the chemical redox-modifying agent indicated in the “Results” section for the indicated duration of treatment. Cells were subsequently washed one time with PBS and media was replaced with normal media supplemented with reductide 1 μM.
BJ fibroblasts in 96-well plates were pretreated with various redox-modifying agents followed by washing, incubation with reductide, and assessment of fluorescence by plate reader. […] However, following twenty-four hours of treatment with H2O2, FAM signal was increased for BJ fibroblasts treated with 200-400 μM H2O2 (FIG. 4D) but decreased with higher doses.
Although glutathione is the most abundant intracellular redox buffering system, the protein thioredoxin also acts as an important redox buffer. In order to test whether uptake and reduction of reductide is affected by glutathione status, thioredoxin status, or both, BJ fibroblasts were treated with the specific inhibitor of thioredoxin reductase, aurothioglucose, the inhibitor of glutathione biosynthesis, 1-buthionine sulfoximine (BSO), or both for 24 hours followed by washing, incubation with reductide for four hours, and plate reader assay. […] Thus, uptake and reduction of reductide depends on both glutathione and thioredoxin systems.
In another test to determine whether uptake and reduction of reductide is affected by glutathione status, BJ fibroblasts were treated with 1-buthionine sulfoximine (BSO), an inhibitor of glutathione biosynthesis, or diamide, a thiol oxidizing agent that decreases the cellular GSH to GSSG ratio. […] The following day, cells were treated with the glutathione biosynthesis inhibitor 1-buthionine sulfoximine (BSO) (FIG. 6a) or the thiol oxidizing agent diamide (FIG. 6b) in normal media also containing reductide 1 μM.
The following day, cells were incubated in normal cell media supplemented with 50 μM of a redox-modifying compound from the redox library distributed from Enzo Life Sciences. Each redox compound was used to treat three wells for 24 hours. Afterward, cells were washed with PBS followed by incubation in reductide 1 μM dissolved in normal media for four hours. FAM signal from reduction of reductide's disulfide bond was assayed in a plate reader. Most compounds in the library are classified as antioxidants. […] It should be noted that the screening conditions (50 μM concentration, 24 hour drug incubation) were not optimized for each drug individually. That many antioxidants can act as pro-oxidants if their concentration is sufficiently high is well known. […] When retested at new concentrations, different results were obtained (FIG. 10a-c), showing an increase in signal expected for reduction.
Cells were subsequently washed with PBS and incubated with reductide 1.5 μM dissolved in cell media for four hours. FAM signal was assayed in a plate reader. The redox modifying compounds were obtained as an 84 compound library from Enzo Life Sciences. Percentage change in reductide signal in comparison with vehicle treated cells are shown for a subset of the redox modifying compounds.

H9C2 cells = test: Secondary test: protection of cells from hydrogen peroxide oxidative stress, viability by Alamar Blue; type: cell-based, rat; conditions: 4 μM hit for 24 hours; 24 hours after treatment with 600 μM hydrogen peroxide (FIG. 11b)
Experimental: (§1) For comparison with Alamar Blue™ (Invitrogen, Carlsbad, Calif.), cells in a 96-well plate were washed with PBS followed by four hours of incubation with Alamar Blue diluted 1:10 in normal media according to the manufacturer's instructions. Alamar Blue fluorescence was assayed in a plate reader using excitation and emission wavelengths 540 nm and 590 nm, respectively.
(§2) A secondary test was performed to evaluate the ability of each hit to protect cells from oxidative stress. Cells in 96-well plates were incubated with hits dissolved to 4 μM in cell media for 24 hours (three wells per compound). Cells were then washed once with PBS, and treated with hydrogen peroxide dissolved in cell media for four hours. Cells were then washed once with PBS, and cell viability was assayed with Alamar Blue.
(§3) Control cells were not treated with hydrogen peroxide. Every other category, including DMSO, was treated with 240 μM hydrogen peroxide for four hours prior to viability assessment with Alamar Blue. P-value for 10E4 vs. DMSO is 0.04, p-value for 10E4 vs. control is 0.98, and p-value for DMSO vs. control is 0.02. […] Control cells were not treated with hydrogen peroxide. DMSO pre-treated cells and every other category was treated with 980 μM hydrogen peroxide for four hours prior to the addition of Alamar Blue. […]

IMR90 fibroblasts [2] = test: Flow cytometry of cells incubated with reductide (TAMRA, FAM, DAPI, side-scatter); type: cell-based, human
Experimental: IMR90 fibroblasts were seeded onto six 10 cm dishes at a density of 1.8×10^6 cells and allowed to attach overnight. Three dishes were treated with H2O2 600 μM and another three with NAC 4 mM, each in normal media, for one hour. Cells were washed with PBS followed by incubation with reductide 1 μM in normal media for 3, 15, or 30 minutes. Cells were then washed again with PBS followed by trypsinization and collection in normal media without phenol red. Cell concentration was 10^6 per ml. DAPI was added at 1:500 dilution and cells were analyzed by flow cytometry for TAMRA and FAM fluorescence.
IMR90 cells were seeded into 10 cm dishes at a density of 1.8×106 and allowed to attach overnight. The following day, cells were pretreated with NAC 4 mM or H2O2 600 μM for 60 minutes prior to peptide incubation.

IMR90 fibroblasts [3] = system: IMR90 fibroblasts
Experimental: For comparison with monochlorobimane, IMR90 fibroblasts were seeded into a 96 well plate at a density of 50,000 cells per well and attached overnight. Cells were incubated for 60 minutes in media containing NAC or H2O2 at the indicated concentrations. Cells were washed twice in 200 μl of PBS. Monochlorobimane was used to assay reduced GSH content in half the wells using the Glutathione Assay Kit available from Sigma (CS 1020, St. Louis, Mo., USA), following the manufacturer's instructions for use in live cells in a plate reader. At the same time, reductide was dissolved in the same assay buffer used for monochlorobimane treatment and added to half of the wells at a concentration of 1 μM. Fluorimetric readings were performed in a Synergy HT plate reader using excitation and emission wavelengths of 485 nm/528 nm for reductide and 390 nm/478 nm for monochlorobimane. Each cell condition was triplicated, and each experiment was repeated two times.
Reductide (FIG. 8a) is compared with monochlorobimane (FIG. 8b), which is non-fluorescent unless conjugated to low molecular weight thiols, in IMR90 fibroblasts following pretreatment with NAC or H2O2. Cells were seeded into a 96-well plate at a density of 50,000 cells per well and allowed to attach overnight. […]

BJ fibroblasts [4] = test: Secondary test: protection of cells from hydrogen peroxide oxidative stress, viability by Alamar Blue; type: cell-based, human; conditions: 4 μM hit for 24 hours; 980 μM hydrogen peroxide for four hours; viability 24 hours following treatment (FIG. 11c)
Experimental: as §1, §2, §3

[5] = within 30 minutes of incubation; cited from earlier work
[6] = 50 μM for 24 hours, then reductide 1 μM for four hours
[7] = retested at lower concentrations (FIG. 10a-c)
[8] = treated for 24 hours, washing, reductide for four hours (FIG. 5)
[9] = pretreatment at varied concentration, washing, incubation with reductide (FIG. 4A, 4B)
[10] = treated in normal media also containing reductide 1 μM (FIGS. 6a-b)

Compound: CC1=C(C)C(=O)C(C(CCCCCC(=O)O)c2ccccc2)=C(C)C1=O (centres unmarked) [Seratrodast]
- reductide FAM signal, % of control at 50 µM (BJ fibroblasts [1]): 135%

Compound: Cc1cc(Cc2cc(C)cc(C(C)(C)C)c2O)c(O)c(C(C)(C)C)c1 [GERI-BP002A]
- FAM signal relative to vehicle treated cells (BJ fibroblasts [1]; [6]): significant decrease in FAM signal
- FAM signal relative to vehicle treated cells (BJ fibroblasts [1]; [7]): increase in FAM signal consistent with reduction

Compound: C[Se]CC[C@H](N)C(=O)O [selenomethionine]
- FAM signal relative to vehicle treated cells (BJ fibroblasts [1]; all concentrations tested (FIG. 10a-c)): significant increase in FAM signal consistent with reduction

Compound: OC[C@H]1O[C@H]([S-])[C@H](O)[C@@H](O)[C@@H]1O.[Au+] [aurothioglucose]
- reductide FAM signal (BJ fibroblasts [1]; [8]): small increase in reductide FAM signal that was not statistically significant

Compound: CN(C)C(=S)SSC(=S)N(C)C [9B11, thiram]
- viability signal vs. DMSO (H9C2 cells): significantly higher than DMSO

Compound: CC(=O)N[C@@H](CS)C(=O)O [NAC, N-acetylcysteine]
- FAM signal after pretreatment (BJ fibroblasts [1]; [9]): increased in proportion to the concentration
- TAMRA signal (reductide uptake) (IMR90 fibroblasts [2]; pretreatment NAC 4 mM for 60 minutes, then reductide 1 μM): strongest

Compound: O=[N+]([O-])c1ccc(Cl)c([N+](=O)[O-])c1 [CDNB, 1-chloro-2,4-dinitrobenzene]
- FAM signal after pretreatment (BJ fibroblasts [1]; [9]): decreased in proportion to the concentration

Compound: CCN1C(=O)C=CC1=O [N-Ethylmaleimide]
- reductide FAM signal, % of control at 50 µM (BJ fibroblasts [1]): -71.7%

Compound: CN(C)C(=O)/N=N/C(=O)N(C)C [diamide]
- reductide FAM signal (BJ fibroblasts [1]; [10]): significant decrease in reductide FAM signal

Compound: CCCCS(=N)(=O)CCC(N)C(=O)O (centres unmarked) [BSO, 1-buthionine sulfoximine]
- reductide FAM signal (BJ fibroblasts [1]; [8]): significant increase in signal
- reductide FAM signal (BJ fibroblasts [1]; [10]): significant decrease in reductide FAM signal

Compound: OO [H2O2, hydrogen peroxide]
- FAM signal after pretreatment (BJ fibroblasts [1]; four hours of incubation with H2O2 (FIG. 4C)): decreased in proportion to H2O2 concentration
- FAM signal after pretreatment (BJ fibroblasts [1]; twenty-four hours of treatment, 200-400 μM H2O2 (FIG. 4D)): increased
- FAM signal after pretreatment (BJ fibroblasts [1]; twenty-four hours of treatment, higher doses than 200-400 μM (FIG. 4D)): decreased
- nonviable cells by side-scatter or DAPI signal (IMR90 fibroblasts [2]; reductide 1 μM for 3, 15 or 30 minutes vs. controls, H2O2 600 μM pretreatment for 60 minutes): No increase in nonviable cells
- FAM signal following incubation with reductide (IMR90 fibroblasts [3]; pretreatment 600 μM for 60 minutes (FIG. 8a)): significant decrease in FAM signal
- FAM signal following incubation with reductide (IMR90 fibroblasts [3]; pretreatment with low doses for 60 minutes (FIG. 8a)): mild increases in FAM signal

Compound: O=c1c2ccccc2[se]n1-c1ccccc1 [Ebselen]
- reductide FAM signal, % of control at 50 µM (BJ fibroblasts [1]): 77.2%

Compound: COC1=C(OC)C(=O)C(CCCCCCCCCCO)=C(C)C1=O [Idebenone]
- reductide FAM signal, % of control at 50 µM (BJ fibroblasts [1]): 121%

Compound: COc1ccccc1OCCNCC(O)COc1cccc2[nH]c3ccccc3c12 (centres unmarked) [carvedilol]
- FAM signal relative to vehicle treated cells (BJ fibroblasts [1]; [6]): significant decrease in FAM signal
- FAM signal relative to vehicle treated cells (BJ fibroblasts [1]; [7]): increase in FAM signal consistent with reduction

Compound: CC(=O)O[C@@H]1C[C@@]2(C)[C@H](c3ccoc3)C[C@H]3O[C@]32[C@]2(C)C(=O)C(O)=C3C(C)(C)C(=O)C=C[C@]3(C)[C@@H]12 [20B8, anthothecol]
- viability signal vs. DMSO (H9C2 cells): significantly higher than DMSO

Compound: CCOc1ccc2c(c1)C(C)=CC(C)(C)N2 [Ethoxyquin]
- reductide FAM signal, % of control at 50 µM (BJ fibroblasts [1]): 155%

Compound: CC1=C(/C=C/C(C)=C/C=C/C(C)=C/C=C/C=C(C)/C=C/C=C(C)/C=C/C2=C(C)CCCC2(C)C)C(C)(C)CCC1 [β-carotene]
- reductide FAM signal, % of control at 50 µM (BJ fibroblasts [1]): 111%

Compound: C=C(C)C(=O)C(=CC(=O)O)OC [3E7, penicillic acid]
- viability vs. control (not treated with hydrogen peroxide) (BJ fibroblasts [4]): significantly higher than control

Compound: KLALKLALKALKAALKLA-NH2 [MAP]
- internalized fraction [5]: 60%

Compound: CCCCCCCCCCCCCCCC(=O)OC/C=C(C)/C=C/C=C(C)/C=C/C1=C(C)CCCC1(C)C [Retinyl palmitate]
- reductide FAM signal, % of control at 50 µM (BJ fibroblasts [1]): 124%
